Tests used:
crabgrass = assay: Test C pre-/postemergence test; assay type: in vivo, Digitaria sanguinalis; conditions: Preemergence; for Crabgrass, Large plant response rating: 62 g ai/ha, scale 0 to 100; for Plant response rating, Crabgrass, Large: 31 g ai/ha, scale 0 to 100 (0 no effect, 100 complete control); for Plant response rating (0 to 100), Crabgrass, Large: 250 g ai/ha
Outline: (§1)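 Seeds were planted and treated preemergence with test chemical in a non-phytotoxic solvent mixture containing surfactant. Postemergence applications of the same formulation went onto plants 2 to 18 cm tall (1- to 4-leaf stage). A dash marks no test result.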

eastern black nightshade = assay: Test C pre-/postemergence test; assay type: in vivo, Solanum ptycanthum; conditions: Preemergence; for Nightshade plant response rating: 62 g ai/ha, scale 0 to 100; for Plant response rating, Nightshade: 31 g ai/ha, scale 0 to 100 (0 no effect, 100 complete control)
Outline: as §1

kochia = assay: Test C pre-/postemergence test; assay type: in vivo, Kochia scoparia; conditions: Preemergence; for Plant response rating, Kochia: 31 g ai/ha, scale 0 to 100 (0 no effect, 100 complete control)
Outline: as §1

green foxtail = assay: Test C pre-/postemergence test; assay type: in vivo, Setaria viridis; conditions: Preemergence; for Foxtail, Green plant response rating: 62 g ai/ha, scale 0 to 100; for Plant response rating, Foxtail, Green: 31 g ai/ha, scale 0 to 100 (0 no effect, 100 complete control); for Plant response rating (0 to 100), Foxtail, Green: 250 g ai/ha
Outline: as §1

downy brome = assay: Test C pre-/postemergence test; assay type: in vivo, Bromus tectorum; conditions: for Plant response rating, Bromegrass, Downy: 31 g ai/ha, scale 0 to 100 (0 no effect, 100 complete control); for Plant response rating (0 to 100), Bromegrass, Downy: 250 g ai/ha
Outline: as §1

johnsongrass = assay: Test C pre-/postemergence test; assay type: in vivo, Sorghum halepense; conditions: Preemergence; for Johnsongrass plant response rating: 62 g ai/ha, scale 0 to 100; for Plant response rating, Johnsongrass: 31 g ai/ha, scale 0 to 100 (0 no effect, 100 complete control); for Plant response rating (0 to 100), Johnsongrass: 250 g ai/ha
Outline: as §1

velvetleaf [1] = assay: Test A pre-/postemergence greenhouse test; assay type: in vivo, Abutilon theophrasti; conditions: for Velvetleaf plant response rating: 0 to 100 scale; for Plant response rating, Velvetleaf: 0 to 100 scale where 0 is no effect and 100 is complete control
Outline: (§2)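 Visual injury ratings against untreated controls, taken roughly ten days after treatment in greenhouse. Plants were sprayed postemergence at one- to two-leaf stage (2–10 cm tall); at the same time, seeded loam/sand soil received a directed preemergence spray. Formulation: non-phytotoxic solvent mixture with surfactant.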

giant foxtail = assay: Test C pre-/postemergence test; assay type: in vivo, Setaria faberii; conditions: Preemergence; for Foxtail, Giant plant response rating: 62 g ai/ha, scale 0 to 100; for Plant response rating, Foxtail, Giant: 31 g ai/ha, scale 0 to 100 (0 no effect, 100 complete control)
Outline: as §1

velvetleaf [2] = assay: Test C pre-/postemergence test; assay type: in vivo, Abutilon theophrasti; conditions: Preemergence; for Velvetleaf plant response rating: 62 g ai/ha, scale 0 to 100; for Plant response rating, Velvetleaf: 31 g ai/ha, scale 0 to 100 (0 no effect, 100 complete control)
Outline: as §1

common ragweed = assay: Test C pre-/postemergence test; assay type: in vivo, Ambrosia elation; conditions: Preemergence; for Ragweed plant response rating: 62 g ai/ha, scale 0 to 100; for Plant response rating, Ragweed: 31 g ai/ha, scale 0 to 100 (0 no effect, 100 complete control)
Outline: as §1

duck salad = assay: Test C flooded paddy test; assay type: in vivo, Heteranthera limosa; conditions: Flood
Outline: (§3)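 In-water treatment: compound dosed into 3 cm flood over soil, water level unchanged throughout. Controls run alongside; visual assessment at day 13–15.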

barnyardgrass = assay: Test A pre-/postemergence greenhouse test; assay type: in vivo, Echinochloa crus-galli; conditions: for Barnyardgrass plant response rating: 0 to 100 scale; for Plant response rating, Barnyardgrass: 0 to 100 scale where 0 is no effect and 100 is complete control
Outline: as §2

redroot pigweed = assay: Test A pre-/postemergence greenhouse test; assay type: in vivo, Amaranthus retroflexus; conditions: for Pigweed plant response rating: 0 to 100 scale; for Plant response rating, Pigweed: 0 to 100 scale where 0 is no effect and 100 is complete control
Outline: as §2

cocklebur = assay: Test C pre-/postemergence test; assay type: in vivo, Xanthium strumarium; conditions: for Plant response rating, Cocklebur: 31 g ai/ha, scale 0 to 100 (0 no effect, 100 complete control); for Plant response rating (0 to 100), Cocklebur: 250 g ai/ha
Outline: as §1

rice = assay: Test C flooded paddy test; assay type: in vivo, Oryza sativa; conditions: Flood
Outline: as §3

lambsquarters = assay: Test C pre-/postemergence test; assay type: in vivo, Chenopodium album; conditions: Preemergence; for Lambsquarters plant response rating: 62 g ai/ha, scale 0 to 100
Outline: as §1

Surinam grass = assay: Test C pre-/postemergence test; assay type: in vivo, Brachiaria decumbens; conditions: Preemergence; for Surinam Grass plant response rating: 62 g ai/ha, scale 0 to 100; for Plant response rating, Surinam Grass: 31 g ai/ha, scale 0 to 100 (0 no effect, 100 complete control)
Outline: as §1

wild oat = assay: Test C pre-/postemergence test; assay type: in vivo, Avena fatua; conditions: Preemergence; for Oat, Wild plant response rating: 62 g ai/ha, scale 0 to 100; for Plant response rating, Oat, Wild: 31 g ai/ha, scale 0 to 100 (0 no effect, 100 complete control)
Outline: as §1

[3] = 62 g ai/ha, Preemergence, scale 0 to 100
[4] = preemergence, 125 g ai/ha, scale 0 (no effect) to 100 (complete control)
[5] = Postemergence, 125 g ai/ha, 0 is no effect, 100 is complete control
[6] = Postemergence, 500 g ai/ha, 0 is no effect, 100 is complete control
[7] = Preemergence, 125 g ai/ha, 0 no effect, 100 complete control
[8] = 31 g ai/ha, scale 0 to 100 (0 no effect, 100 complete control)
[9] = 62 g ai/ha, scale 0 to 100, 0 no effect, 100 complete control, 13 to 15 days
[10] = 125 g ai/ha, scale 0 to 100, 0 no effect, 100 complete control, 13 to 15 days
[11] = 250 g ai/ha, scale 0 to 100 (0 no effect, 100 complete control)

Cc1cc[n+]([O-])c(S(=O)(=O)Cc2c(C(F)(F)F)nn(C)c2Cl)c1 [Compound 19]
Crabgrass, Large plant response rating (crabgrass): 100
Plant response rating, Crabgrass, Large (crabgrass): 98
Plant response rating (0 to 100), Crabgrass, Large (crabgrass): 100
Nightshade plant response rating (eastern black nightshade): 100
Plant response rating, Nightshade (eastern black nightshade): 85
Kochia plant response rating (kochia; 62 g ai/ha, scale 0 to 100): 100
Plant response rating, Kochia (kochia): 0
Foxtail, Green plant response rating (green foxtail): 100
Plant response rating, Foxtail, Green (green foxtail): 98
Plant response rating (0 to 100), Foxtail, Green (green foxtail): 100
Bromegrass, Downy plant response rating (downy brome; [3]): 0
Plant response rating, Bromegrass, Downy (downy brome; Preemergence): 0
Plant response rating (0 to 100), Bromegrass, Downy (downy brome; Preemergence): 0
Bromegrass, Downy plant response rating (downy brome; [4]): 0
Johnsongrass plant response rating (johnsongrass): 80
Plant response rating, Johnsongrass (johnsongrass): 10
Plant response rating (0 to 100), Johnsongrass (johnsongrass): 100
Velvetleaf plant response rating (velvetleaf [1]; [5]): 20
Velvetleaf plant response rating (velvetleaf [1]; [6]): 40
Velvetleaf plant response rating (velvetleaf [1]; [7]): 0
Plant response rating, Velvetleaf (velvetleaf [1]; Preemergence, 500 g ai/ha): 50
Foxtail, Giant plant response rating (giant foxtail): 100
Plant response rating, Foxtail, Giant (giant foxtail): 100
Plant response rating (0 to 100), Foxtail, Giant (giant foxtail; 250 g ai/ha): 100
Velvetleaf plant response rating (velvetleaf [2]): 0
Plant response rating, Velvetleaf (velvetleaf [2]): 0
Ragweed plant response rating (common ragweed): 0
Plant response rating, Ragweed (common ragweed): 0
Plant response rating, Ducksalad (duck salad; [8]): 0
Plant response rating, Ducksalad (duck salad; [9]): 0
Plant response rating, Ducksalad (duck salad; [10]): 0
Plant response rating, Ducksalad (duck salad; [11]): 75
Barnyardgrass plant response rating (barnyardgrass; [5]): 40
Barnyardgrass plant response rating (barnyardgrass; [6]): 80
Barnyardgrass plant response rating (barnyardgrass; [7]): 80
Plant response rating, Barnyardgrass (barnyardgrass; Preemergence, 500 g ai/ha): 100
Pigweed plant response rating (redroot pigweed; [5]): 10
Pigweed plant response rating (redroot pigweed; [6]): 30
Pigweed plant response rating (redroot pigweed; [7]): 100
Plant response rating, Pigweed (redroot pigweed; Preemergence, 500 g ai/ha): 100
Cocklebur plant response rating (cocklebur; [3]): 0
Plant response rating, Cocklebur (cocklebur; Preemergence): 0
Plant response rating (0 to 100), Cocklebur (cocklebur; Preemergence): 30
Cocklebur plant response rating (cocklebur; [4]): 0
Plant response rating, Rice (rice; [8]): 0
Plant response rating, Rice (rice; [9]): 0
Plant response rating, Rice (rice; [10]): 30
Plant response rating, Rice (rice; [11]): 70
Lambsquarters plant response rating (lambsquarters): 0
Plant response rating, Lambsquarters (lambsquarters; [8]): 0
Surinam Grass plant response rating (Surinam grass): 50
Plant response rating, Surinam Grass (Surinam grass): 0
Oat, Wild plant response rating (wild oat): 0
Plant response rating, Oat, Wild (wild oat): 0

Cn1nc(C(F)(F)F)c(CS(=O)(=O)c2cc(C(C)(C)C)cc[n+]2[O-])c1OC(F)F [Compound 25]
Crabgrass, Large plant response rating (crabgrass): 100
Plant response rating, Crabgrass, Large (crabgrass): 100
Plant response rating (0 to 100), Crabgrass, Large (crabgrass): 100
Nightshade plant response rating (eastern black nightshade): 100
Plant response rating, Nightshade (eastern black nightshade): 100
Plant response rating, Kochia (kochia): 0
Foxtail, Green plant response rating (green foxtail): 98
Plant response rating, Foxtail, Green (green foxtail): 80
Plant response rating (0 to 100), Foxtail, Green (green foxtail): 100
Bromegrass, Downy plant response rating (downy brome; [3]): 0
Plant response rating, Bromegrass, Downy (downy brome; Preemergence): 0
Plant response rating (0 to 100), Bromegrass, Downy (downy brome; Preemergence): 50
Bromegrass, Downy plant response rating (downy brome; [4]): 0
Johnsongrass plant response rating (johnsongrass): 98
Plant response rating, Johnsongrass (johnsongrass): 70
Plant response rating (0 to 100), Johnsongrass (johnsongrass): 100
Velvetleaf plant response rating (velvetleaf [1]; [5]): 30
Velvetleaf plant response rating (velvetleaf [1]; [6]): 50
Velvetleaf plant response rating (velvetleaf [1]; [7]): 60
Plant response rating, Velvetleaf (velvetleaf [1]; Preemergence, 500 g ai/ha): 100
Foxtail, Giant plant response rating (giant foxtail): 85
Plant response rating, Foxtail, Giant (giant foxtail): 40
Velvetleaf plant response rating (velvetleaf [2]): 80
Plant response rating, Velvetleaf (velvetleaf [2]): 20
Ragweed plant response rating (common ragweed): 10
Plant response rating, Ragweed (common ragweed): 0
Plant response rating, Ducksalad (duck salad; [8]): 0
Plant response rating, Ducksalad (duck salad; [9]): 40
Plant response rating, Ducksalad (duck salad; [10]): 60
Plant response rating, Ducksalad (duck salad; [11]): 80
Barnyardgrass plant response rating (barnyardgrass; [5]): 40
Barnyardgrass plant response rating (barnyardgrass; [6]): 50
Barnyardgrass plant response rating (barnyardgrass; [7]): 90
Plant response rating, Barnyardgrass (barnyardgrass; Preemergence, 500 g ai/ha): 100
Pigweed plant response rating (redroot pigweed; [5]): 30
Pigweed plant response rating (redroot pigweed; [6]): 40
Pigweed plant response rating (redroot pigweed; [7]): 100
Plant response rating, Pigweed (redroot pigweed; Preemergence, 500 g ai/ha): 100
Cocklebur plant response rating (cocklebur; [3]): 0
Plant response rating, Cocklebur (cocklebur; Preemergence): 0
Plant response rating (0 to 100), Cocklebur (cocklebur; Preemergence): 0
Cocklebur plant response rating (cocklebur; [4]): 0
Plant response rating, Rice (rice; [8]): 0
Plant response rating, Rice (rice; [9]): 0
Plant response rating, Rice (rice; [10]): 65
Plant response rating, Rice (rice; [11]): 75
Lambsquarters plant response rating (lambsquarters): 60
Surinam Grass plant response rating (Surinam grass): 50
Plant response rating, Surinam Grass (Surinam grass): 0
Oat, Wild plant response rating (wild oat): 85
Plant response rating, Oat, Wild (wild oat): 0

Source: patent US20100298141A1, “SUBSTITUTED PYRIDINE N-OXIDE HERBICIDES” (E. I. DU PONT DE NEMOURS AND COMPANY, priority 2007, published 2010)
